In brackets after ≈: the same amount, converted by molar mass. Each block holds one compound with its values, some of them ahead of it.
Columns and labels:
[1] = Solubility in aqueous solutions (Table 3); type: physicochemical; settings: aqueous solution
Experimental: The skilled person understands that the pH of the gastrointestinal tract changes along its length. […] For more detail see, for example, Measurement of gastrointestinal pH profiles in normal ambulant human subjects, Gut. […] Improved solubility is expected to result in improved absorption, and therefore improved oral bioavailability.
In an embodiment prodrugs of the invention are administered intravenously. High prodrug solubility is advantageous in order to reduce the volume of solution administered to the patient, and to reduce the risk of damage to the circulatory system. Solubility of >10 mg/mL is preferred.

hERG K+ channel = target: T1, hERG K+ channel (Homo sapiens, UniProt Q12809); test: hERG assay, IonWorks patch clamp electrophysiology; type: cell-based; settings: human, pH 7.3; 11 uM; Chinese Hamster Lung cell line stably expressing hERG
T1 construct: a Chinese Hamster Lung cell line stably expressing the full length hERG channel; expressed in transfected cells; host or cells: Chinese Hamster Lung cell line
Experimental: Compounds of the invention were tested for inhibition of the human ether a go-go related gene (hERG) K^+ channel using IonWorks patch clamp electrophysiology. 8 Point concentration-response curves were generated on two occasions using 3-fold serial dilutions from the maximum assay concentration (33 uM). Electrophysiological recordings were made from a Chinese Hamster Lung cell line stably expressing the full length hERG channel. Single cell ion currents were measured in the perforated patch clamp configuration (100 ug/mL amphoterocin) at room temperature using an IonWorks Quattro instrument. The internal solution contained 140 mM KCl, 1 mM MgCl2, 1 mM EGTA and 20 mM HEPES and was buffered to pH 7.3. The external solution contained 138 mM NaCl, 2.7 mM KCl, 0.9 mM CaCl2, 0.5 mM MgCl2, 8 mM Na2HPO4 and 1.5 mM KH2PO4, and was buffered to pH 7.3. Cells were clamped at a holding potential of […] for 30 s and then stepped to +40 mV for 1 s. This was followed by a hyperpolarising step of 1 s to […] to evoke the hERG tail current. This sequence was repeated 5 times at a frequency of 0.25 Hz. Currents were measured from the tail step at the 5th pulse, and referenced to the holding current. Compounds were incubated for 6-7 min prior to a second measurement of the hERG signal using an identical pulse train. A minimum of 17 cells were required for each pIC50 curve fit. A control compound (quinidine) was used.

T1 sequence (Q12809 whole entry): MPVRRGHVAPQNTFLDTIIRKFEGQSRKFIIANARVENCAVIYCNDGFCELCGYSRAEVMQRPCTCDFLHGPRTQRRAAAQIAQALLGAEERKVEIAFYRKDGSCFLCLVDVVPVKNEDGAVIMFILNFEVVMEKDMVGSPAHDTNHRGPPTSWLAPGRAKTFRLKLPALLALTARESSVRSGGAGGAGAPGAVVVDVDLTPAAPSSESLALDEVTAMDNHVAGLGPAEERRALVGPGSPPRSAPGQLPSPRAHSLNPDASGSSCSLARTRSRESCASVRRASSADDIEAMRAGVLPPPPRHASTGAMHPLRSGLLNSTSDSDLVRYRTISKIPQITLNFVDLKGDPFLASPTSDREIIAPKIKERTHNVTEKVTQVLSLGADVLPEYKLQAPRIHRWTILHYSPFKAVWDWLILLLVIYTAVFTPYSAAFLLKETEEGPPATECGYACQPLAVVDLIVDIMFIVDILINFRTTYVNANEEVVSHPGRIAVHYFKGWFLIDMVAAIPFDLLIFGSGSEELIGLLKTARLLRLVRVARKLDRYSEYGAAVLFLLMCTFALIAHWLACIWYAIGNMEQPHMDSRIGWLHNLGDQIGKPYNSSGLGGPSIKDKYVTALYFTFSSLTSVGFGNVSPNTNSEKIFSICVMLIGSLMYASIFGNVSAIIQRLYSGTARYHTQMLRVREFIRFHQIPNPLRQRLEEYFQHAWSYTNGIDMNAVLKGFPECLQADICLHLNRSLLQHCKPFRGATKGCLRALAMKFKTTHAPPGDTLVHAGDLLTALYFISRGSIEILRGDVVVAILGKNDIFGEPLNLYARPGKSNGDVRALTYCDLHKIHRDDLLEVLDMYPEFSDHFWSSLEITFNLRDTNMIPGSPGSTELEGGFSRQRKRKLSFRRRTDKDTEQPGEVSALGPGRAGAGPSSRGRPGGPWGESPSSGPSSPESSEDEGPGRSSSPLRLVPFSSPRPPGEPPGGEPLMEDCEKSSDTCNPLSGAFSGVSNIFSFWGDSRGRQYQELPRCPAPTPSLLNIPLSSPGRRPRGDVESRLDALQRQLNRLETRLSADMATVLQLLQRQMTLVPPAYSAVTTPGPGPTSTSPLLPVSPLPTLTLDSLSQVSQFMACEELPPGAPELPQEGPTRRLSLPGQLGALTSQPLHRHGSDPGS

- solubility ([1]; pH 8.8, aqueous buffer): < 1000 µg/mL
SMILES: CC(=O)c1ccc2c(c1)[C@H](NC(=O)c1ccc(F)c(Cl)c1)[C@H](OC(=O)NCC(=O)O)C(C)(C)O2 [Example 7, 2-[({[(3S,4S)-6-Acetyl-4-[(3-chloro-4-fluorobenzene)amido]-2,2-dimethyl-3,4-dihydro-2H-1-benzopyran-3-yl]oxy}carbonyl)amino]acetic acid]

- solubility ([1]; pH 4.5, aqueous buffer): > 10000 µg/mL
SMILES: CC(=O)c1ccc2c(c1)[C@H](NC(=O)c1ccc(F)c(Cl)c1)[C@H](OC(=O)[C@@H](NC(=O)[C@@H](N)C(C)C)C(C)C)C(C)(C)O2.Cl [Example 15, (3S,4S)-6-Acetyl-4-[(3-chloro-4-fluorobenzene)amido]-2,2-dimethyl-3,4-dihydro-2H-1-benzopyran-3-yl (2S)-2-[(2S)-2-amino-3-methylbutanamido]-3-methylbutanoate hydrochloride]
- inhibition at 11 µM (hERG K+ channel): 21%

- solubility ([1]; pH 5.6, aqueous buffer): > 10000 µg/mL
SMILES: CC(=O)c1ccc2c(c1)[C@H](NC(=O)c1ccc(F)c(Cl)c1)[C@H](OC(=O)[C@H](C)NC(=O)[C@@H](N)C(C)C)C(C)(C)O2.Cl [Example 20, (3S,4S)-6-Acetyl-4-[(3-chloro-4-fluorobenzene)amido]-2,2-dimethyl-3,4-dihydro-2H-1-benzopyran-3-yl (2S)-2-[(2S)-2-amino-3-methylbutanamido]propanoate hydrochloride]

- solubility ([1]; pH 5.2, aqueous buffer): > 10000 µg/mL
SMILES: CC(=O)c1ccc2c(c1)[C@H](NC(=O)c1ccc(F)c(Cl)c1)[C@H](OC(=O)[C@H](C)NC(=O)[C@@H](N)CC(C)C)C(C)(C)O2.Cl [Example 21, 6-Acetyl-4-[(3-chloro-4-fluorobenzene)amido]-2,2-dimethyl-3,4-dihydro-2H-1-benzopyran-3-yl (2S)-2-[(2S)-2-amino-4-methylpentanamido]propanoate hydrochloride]

- solubility ([1]; aqueous buffer, pH not given): < 1000 µg/mL
SMILES: CC(=O)c1ccc2c(c1)[C@H](NC(=O)c1ccc(F)c(Cl)c1)[C@H](OC(=O)OCC[N+](C)(C)C)C(C)(C)O2.[I-] [Example 2, (3S,4S)-6-Acetyl-4-[(3-chloro-4-fluorobenzene)amido]-2,2-dimethyl-3,4-dihydro-2H-1-benzopyran-3-yl 2-(trimethylazaniumyl)ethyl carbonate iodide]

- solubility ([1]; pH 5.7, aqueous buffer): 1000 µg/mL
SMILES: CC(=O)c1ccc2c(c1)[C@H](NC(=O)c1ccc(F)c(Cl)c1)[C@H](OC(=O)CCCN1CCOCC1)C(C)(C)O2.Cl [Example 17, (3S,4S)-6-Acetyl-4-[(3-chloro-4-fluorobenzene)amido]-2,2-dimethyl-3,4-dihydro-2H-1-benzopyran-3-yl 4-(morpholin-4-yl)butanoate hydrochloride]
- inhibition at 11 µM (hERG K+ channel): 27%

- solubility ([1]; pH 4.2, aqueous buffer): 500 µg/mL (≈ 916 µM)
SMILES: CC(=O)c1ccc2c(c1)[C@H](NC(=O)c1ccc(F)c(Cl)c1)[C@H](OC(=O)CNC(=O)[C@@H]1CCCN1)C(C)(C)O2 [Example 10, (3S,4S)-6-Acetyl-4-[(3-chloro-4-fluorobenzene)amido]-2,2-dimethyl-3,4-dihydro-2H-1-benzopyran-3-yl 2-[(2S)-pyrrolidin-2-ylformamido]acetate]
- inhibition at 11 µM (hERG K+ channel): 32%

- solubility ([1]; aqueous buffer, pH not given): < 1000 µg/mL
SMILES: CCN(CC)CCOC(=O)O[C@H]1[C@@H](NC(=O)c2ccc(F)c(Cl)c2)c2cc(C(C)=O)ccc2OC1(C)C [Example 3, (3S,4S)-6-Acetyl-4-[(3-chloro-4-fluorobenzene)amido]-2,2-dimethyl-3,4-dihydro-2H-1-benzopyran-3-yl 2-(diethylamino)ethyl carbonate]
- inhibition at 11 µM (hERG K+ channel): 20%

- solubility ([1]; aqueous buffer, pH 5.0): > 10000 µg/mL
SMILES: CC[C@H](C)[C@H](N)C(=O)NCC(=O)O[C@H]1[C@@H](NC(=O)c2ccc(F)c(Cl)c2)c2cc(C(C)=O)ccc2OC1(C)C.Cl [Example 13, (3S,4S)-6-Acetyl-4-[(3-chloro-4-fluorobenzene)amido]-2,2-dimethyl-3,4-dihydro-2H-1-benzopyran-3-yl 2-[(2S,3S)-2-amino-3-methylpentanamido]acetate hydrochloride]
- inhibition at 11 µM (hERG K+ channel): 2%

- solubility ([1]; pH 5.5, aqueous buffer): > 10000 µg/mL
SMILES: CC(=O)c1ccc2c(c1)[C@H](NC(=O)c1ccc(F)c(Cl)c1)[C@H](OC(=O)CNC(=O)[C@@H](N)C(C)C)C(C)(C)O2.Cl [Example 14, (3S,4S)-6-Acetyl-4-[(3-chloro-4-fluorobenzene)amido]-2,2-dimethyl-3,4-dihydro-2H-1-benzopyran-3-yl 2-[(2S)-2-amino-3-methylbutanamido]acetate hydrochloride]
- inhibition at 11 µM (hERG K+ channel): 14%

- solubility ([1]; aqueous buffer, pH 5.0): > 10000 µg/mL
SMILES: CC(=O)c1ccc2c(c1)[C@H](NC(=O)c1ccc(F)c(Cl)c1)[C@H](OC(=O)CNC(=O)[C@@H](N)CC(C)C)C(C)(C)O2.Cl [Example 11, (3S,4S)-6-Acetyl-4-[(3-chloro-4-fluorobenzene)amido]-2,2-dimethyl-3,4-dihydro-2H-1-benzopyran-3-yl 2-[(2S)-2-amino-4-methylpentanamido]acetate hydrochloride]
- inhibition at 11 µM (hERG K+ channel): 34%

- solubility ([1]; pH 5.3, aqueous buffer): > 10000 µg/mL
SMILES: CC(=O)c1ccc2c(c1)[C@H](NC(=O)c1ccc(F)c(Cl)c1)[C@H](OC(=O)[C@H](C)N(C)C(=O)[C@@H](N)C(C)C)C(C)(C)O2.Cl [Example 29, 6-Acetyl-4-[(3-chloro-4-fluorobenzene)amido]-2,2-dimethyl-3,4-dihydro-2H-1-benzopyran-3-yl (2S)-2-[(2S)-2-amino-N,3-dimethylbutanamido]propanoate hydrochloride]

- solubility ([1]; pH 5.1, aqueous buffer): > 10000 µg/mL
SMILES: CC(=O)c1ccc2c(c1)[C@H](NC(=O)c1ccc(F)c(Cl)c1)[C@H](OC(=O)CNC(=O)CN)C(C)(C)O2.Cl [Example 12, (3S,4S)-6-Acetyl-4-[(3-chloro-4-fluorobenzene)amido]-2,2-dimethyl-3,4-dihydro-2H-1-benzopyran-3-yl 2-(2-aminoacetamido)acetate hydrochloride]
- inhibition at 11 µM (hERG K+ channel): 43%

- solubility ([1]; pH 4.4, aqueous buffer): 1000 µg/mL
SMILES: CC(=O)c1ccc2c(c1)[C@H](NC(=O)c1ccc(F)c(Cl)c1)[C@H](OC(=O)[C@@H](NC(=O)CN)C(C)C)C(C)(C)O2.Cl [Example 16, (3S,4S)-6-Acetyl-4-[(3-chloro-4-fluorobenzene)amido]-2,2-dimethyl-3,4-dihydro-2H-1-benzopyran-3-yl (2S)-2-(2-aminoacetamido)-3-methylbutanoate hydrochloride]
